This is an account of results in PubChem BioAssay (NCI).

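Cells were grown in 96-well plates and exposed to each compound for 48 hours at five concentrations; endpoints were interpolated linearly between bracketing concentrations, or set to the highest concentration if not reached. TGI marks complete inhibition of growth.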

Holding throughout (experiment): NCI anticancer screen, dose series, 48 h
Assay [1] concerns ACHN renal.
Assay [2] relates to HCT-15 colon.
Assay [3] concerns SW-620 colon.
In assay [4] the test system is MDA-MB-231 breast.
The subject of assay [5] is SK-MEL-2 melanoma.
Assay [6] relates to UACC-62 melanoma.
Assay [7] has as its system K-562 leukemia.
Assay [8] deals with OVCAR-5 ovarian.
The subject of assay [9] is EKVX NSCLC.
For assay [10], the system named is RPMI-8226 leukemia.
In assay [11] the test system is MDA-N.
Assay [12] deals with NCI-H460 lung.
The subject of assay [13] is UO-31 renal.
The subject of assay [14] is 786-0 renal.
Assay [15] has as its system MOLT-4 leukemia.
The test system of assay [16] is HCT-116 colon.
For assay [17], the system named is OVCAR-4 ovarian.
The test system of assay [18] is SK-MEL-28 melanoma.
Assay [19] deals with SF-539 CNS.
The subject of assay [20] is A498 renal.

In the case of `COC(=O)c1ccccc1C1CN=NC12Cc1ccccc1C2=O` (centres undefined), the TGI in assay [1], in assay [2], in [3], in assay [4], in [5] and in assay [6] was above 100 µM throughout. The TGI in assay [7], in assay [8], in [9], in assay [10], in assay [11] and in [12] was above 100 µM in each case. Moreover, the TGI in assay [13], in assay [14], in [15], in assay [16], in assay [17] and in assay [18] was above 100 µM in each case. The TGI in [19] was above 100 µM.

As for `COc1cc2nc(-c3cccs3)nc(N3CCN(c4ccccc4C(F)(F)F)CC3)c2cc1OC`, the TGI in assay [1], in assay [2], in assay [3], in assay [4], in assay [5] and in assay [6] was above 100 µM each time. Also, the TGI in [7], in assay [8], in assay [9], in assay [10], in [12] and in [13] was above 100 µM throughout. Moreover, the TGI in assay [14], in assay [20], in assay [15], in [16], in assay [17] and in assay [18] was above 100 µM throughout. In addition, the TGI in [19] was above 100 µM.

`O=C1/C(=C/c2ccc(OC(=O)c3ccccc3)cc2)CCC/C1=C\c1ccc(OC(=O)c2ccccc2)cc1`: the TGI in assay [1], in assay [2], in [3], in assay [4], in [5] and in assay [6] was above 100 µM in each case. The TGI in [8], in [9], in [10], in [11], in assay [12] and in [13] was above 100 µM each time. Further, the TGI in [14], in [15], in [16], in assay [17], in [18] and in assay [19] was above 100 µM throughout.

Regarding `C1CCCCC2(CCCCCCCCC3(CCC1)OCCO3)OCCO2`, the TGI in [1], in assay [2], in [3], in assay [5], in assay [6] and in [7] was above 100 µM each time. For the same compound, the TGI is above 100 µM in assay [8]; above 100 µM in assay [9]; above 100 µM in assay [11]; above 100 µM in assay [12]; 3.64 µM in [13]; above 100 µM in assay [14]. Besides, the TGI in assay [20], in assay [16], in assay [17], in [18] and in assay [19] was above 100 µM in each case.

For `N#Cc1c(=O)c2ccccc2n2c1[nH]c1ccccc12`, the TGI in [1], in [2], in assay [3], in assay [4], in assay [5] and in assay [6] was above 100 µM throughout. The TGI in [7], in [8], in [9], in assay [10], in assay [12] and in [13] was above 100 µM in each case. The TGI in assay [14], in assay [20], in assay [15], in [16], in assay [17] and in assay [18] was above 100 µM in each case. Also, the TGI in assay [19] is above 100 µM.

Regarding `CCC(C(=O)C(=O)C(CC)P1(=O)OC(C)(C)CN1C(C)(C)C)P1(=O)OC(C)(C)CN1C(C)(C)C` (centres undefined), the TGI in [1], in assay [2], in [3], in [4], in [5] and in [6] was above 100 µM each time. For the same compound, the TGI in [7], in [9], in assay [10], in [12], in assay [13] and in assay [14] was above 100 µM each time. The TGI in assay [20] was above 100 µM; in assay [15], 82.3 µM; in assay [16], above 100 µM; in [18] it was above 100 µM; in assay [19] it was above 100 µM.

Take `Cc1cc(C)nc(NS(=O)(=O)c2ccc(NNc3c4ccccc4nc4c(C(=O)Nc5ccc(S(N)(=O)=O)cc5)cccc34)cc2)n1`: the TGI in [1] was above 100 µM; in assay [2], above 100 µM; in assay [3], above 100 µM; in assay [4] it was 89 µM; in [5], 46.7 µM; in assay [6], above 100 µM. Further, the TGI in assay [7], in assay [8], in [9], in assay [10], in [11] and in assay [12] was above 100 µM in each case. The TGI in assay [13] was above 100 µM; in assay [14] it was above 100 µM; in assay [15] it was above 100 µM; in assay [16], above 100 µM; in assay [17], above 100 µM; in [18], 92.3 µM. This compound also had a TGI in assay [19] above 100 µM.

For the compound `Cc1n[nH]c(=O)n1/N=C/c1ccc(F)cc1`, the TGI in [1], in [2], in [3], in [6], in assay [7] and in assay [8] was above 100 µM each time. For the same compound, the TGI in [9], in [10], in [11], in assay [12], in [13] and in assay [14] was above 100 µM throughout. The TGI in [20], in [15], in assay [16], in assay [17], in assay [18] and in assay [19] was above 100 µM throughout.

Take `CCCSc1ccc2[nH]c(/N=C/c3ccccc3)cc2c1`: the TGI in [1] is above 100 µM; in assay [2] it was above 100 µM; in [3], above 100 µM; in [5] it was 32.2 µM; in assay [6], 35 µM; in assay [7], 38.8 µM. The TGI was above 100 µM in assay [8]; 76.2 µM in [9]; 48.3 µM in [10]; 62.6 µM in [11]; above 100 µM in [13]; 40.1 µM in assay [14]. In addition, the TGI in assay [20] worked out at 60.1 µM; in [15], 55.9 µM; in assay [16], 39.8 µM; in assay [17], 88.2 µM; in [18], 90.7 µM; in assay [19] it was 46.3 µM.

Take `COc1cccc(C2c3cc4c(cc3OC(N3CCOCC3)C2C)OCO4)c1OC` (centres undefined): the TGI is 70.9 µM in assay [1]; above 100 µM in assay [2]; above 100 µM in assay [3]; 25.5 µM in assay [5]; 85.5 µM in [6]; 21.1 µM in [7]. Also, the TGI in [8] is 43.6 µM; in assay [9], above 100 µM; in [10] it was 24.1 µM; in assay [11], 46.9 µM; in [12], 30.7 µM; in assay [13], 33.6 µM. For the same compound, the TGI came to 52.7 µM in assay [14]; 20 µM in [15]; 15.7 µM in [16]; 32 µM in [18]; 30.5 µM in assay [19].

As to `Nc1c2ccccc2nc2ccc3c(=O)cc(-c4ccccc4)oc3c12`, the TGI in assay [1] was determined as 2.39 µM; in [2] it was 4.3 µM; in assay [3], 0.34 µM; in assay [4], 2.52 µM; in [5] it was 3.65 µM; in [7], 0.326 µM. For the same compound, the TGI in assay [8] is 2.85 µM; in [9], 2.8 µM; in [10] it was 0.697 µM; in assay [11] it was 2.13 µM; in assay [12], 2.22 µM; in assay [13], 2.86 µM. Also, the TGI turned out to be 0.348 µM in assay [14]; 0.306 µM in [16]; 1.1 µM in assay [17]; 3.21 µM in [18]; 2.34 µM in assay [19].

Regarding `CCN(CC)c1ccc2cc(C(N)=S)c(=N)oc2c1`, the TGI in assay [1], in [2], in assay [3], in assay [4], in assay [5] and in assay [6] was above 100 µM in each case. Besides, the TGI in assay [7], in assay [8], in assay [9], in [10], in assay [11] and in assay [12] was above 100 µM each time. The TGI in assay [13], in assay [14], in assay [15], in assay [16], in [17] and in assay [18] was above 100 µM in each case. This compound had a TGI in assay [19] above 100 µM.

For the compound `CC[C@H](Nc1c(O)c2c(c(O)c1Cl)C(=O)C=CC2=O)C(=O)OC`, the TGI was above 10 µM in [1]; above 10 µM in assay [2]; above 10 µM in assay [3]; 9.76 µM in assay [4]; above 10 µM in assay [5]; above 10 µM in assay [6]. Further, the TGI in assay [7], in [8], in assay [9], in [10], in assay [11] and in [12] was above 10 µM in each case. The TGI is above 10 µM in assay [14]; 9.57 µM in assay [15]; 5.89 µM in assay [16]; above 10 µM in [17]; 9.29 µM in assay [19].

`CC(NO)/C(=N/O)c1ccco1` (centres undefined): the TGI in assay [1], in [2], in [3], in assay [4], in [5] and in assay [7] was above 10 µM each time. Also, the TGI in [8], in assay [9], in assay [10], in assay [11], in assay [12] and in [13] was above 10 µM each time. In addition, the TGI in assay [14], in assay [15], in [16] and in [17] was above 10 µM each time.

With `Cn1c(=O)n2n(c1=O)C(S(=O)(=O)c1ccccc1)C2` (centres undefined), the TGI in assay [1], in [2], in assay [3], in assay [4], in [5] and in assay [6] was above 100 µM in each case. Also, the TGI in [7], in assay [8], in assay [9], in [10], in [11] and in assay [12] was above 100 µM throughout. Besides, the TGI in [13], in [14], in assay [15], in assay [16], in assay [17] and in assay [18] was above 100 µM each time. For the same compound, the TGI in assay [19] was above 100 µM.
